Converted amounts (≈) assume the structure as drawn. Structures can show the parent of a compound that is named as a salt. Where two headings read alike, the source gives them in different places. Some results are limits rather than exact numbers.

Results on three compounds are retold here after US4761414A, “Substituted 1H-pyrimido[1,2-a-]-pyrido[3,4-e]pyrazine 6 oxides” (G. D. Searle & Co., priority 1986, dated 1988).

The test system of experiment [1] is Clostridium perfringens NCTC 523. The experiment is described as follows: microbe, parasite or virus in culture. It is filed as cell-based. As to conditions: Clostridium perfringens NCTC 523; procedures of Example 40; bishydrochloride.
The subject of experiment [2] is Clostridium perfringens NCTC 8237. The experiment is described as follows: microbe, parasite or virus in culture. Format: cell-based. Conditions: Clostridium perfringens NCTC 8237; procedures of Example 40; bishydrochloride.
Experiment [3] deals with Costridium difficile NCIB 10666. The experiment is described as follows: MIC vs panel of anaerobes. It is filed as cell-based, C. difficile. Conditions: procedures of Example 40.
For experiment [4], the system named is Campylobacter fetus ss. jejuni ATCC 29428. The experiment is described as follows: MIC vs panel of anaerobes. Format: cell-based. As to conditions: ATCC29428, procedures of Example 40.
For experiment [5], the system named is Campylobacter fetus ss. jejuni NCTC 10842. Briefly: MIC vs panel of anaerobes. It is filed as cell-based. Conditions: NCTC10842, procedures of Example 40.
The subject of experiment [6] is Fusobacterium necrophorum ATCC 11295. Briefly: MIC vs panel of anaerobes. Format: cell-based. As to conditions: Fusobacterium necrophorum ATCC 11295; procedures of Example 40; bishydrochloride.
For experiment [7], the system named is B. melanogenicus ATCC 15032. The experiment is described as follows: MIC vs panel of anaerobes. Format: cell-based. Conditions: procedures of Example 40.
For experiment [8], the system named is P. anaerobius. The experiment is described as follows: MIC vs panel of anaerobes. It is filed as cell-based. Conditions: Peptostreptococcus anaerobius, procedures of Example 40.
Experiment [9] concerns B. fragilis 23745. Conditions: p.o., after infection and twice daily for 2 days; log CFU/ml liver homogenate; test compound; bishydrochloride.
The test system of experiment [10] is B. fragilis NCTC 10581. Briefly: MIC/MBC against Bacteroides fragilis strain A (96-well microtitre plates, anaerobic chamber). As to conditions: for MBC / MIC: Bacteroides fragilis; for MBC: NCTC10581, 99.9% reduction in viable count; for MIC: NCTC10581, 48 h. It is filed as cell-based. The protocol:
(§1) The screening panel utilized in this Example consisted of 5 strains of Bacteroides fragilis. All assays were carried out in 96-well microtitre plates. If an isolate was obtained from either a culture collection or clinical source, the isolate was immediately inoculated into Wilkens-Chalgren broth (Oxoid) and incubated at 37° C. in an anaerobic chamber in an atmosphere of 85% nitrogen, 10% carbon dioxide, and 5% hydrogen for 48 hours. At the end of this time, the viable count was about 10^12 organisms/ml broth. A 1 ml aliquot of each culture was placed in an ampoule and quick frozen in acetone-dry ice mixture and stored in liquid nitrogen. When an inoculum was utilized in an assay, one of the ampoules was thawed and diluted with fresh broth to yield a suspension having a count of 5×10^5 organisms/ml. A 100 μl aliquot of this suspension was inoculated into each well of the microtitre plate. A 2 mg sample of the test compound was dissolved in 0.2 ml of a suitable solvent such as dimethylsulfoxide, polyethylene glycol 200 or methanol. […] After addition of the test solution the final inoculum level was 10^5 cells/ml. The plates were incubated for 48 hours at 37° C. in the anaerobic chamber. The Minimum Inhibitory Concentration (MIC) was read visually. The MIC is defined as the lowest concentration at which there is no detectable growth. The Minimum Bactericidal Concentration (MBC) was determined by taking 50 μl aliquot from each well and placing it in fresh medium. […] The strains of Bacteroides fragilis utilized in the above procedure are identified by letter in accordance with the following legend: |A B. fragilis NCTC 10581

Experiment [11] has as its system Peptococcous magnus. Briefly: MIC vs panel of anaerobes. It is filed as cell-based. As to conditions: procedures of Example 40.
Experiment [12] concerns Peptostreptococcus. The experiment is described as follows: MIC vs panel of anaerobes. As to conditions: procedures of Example 40. It is filed as cell-based.
Experiment [13] relates to B. fragilis NCTC 9343. The experiment is described as follows: MIC/MBC against Bacteroides fragilis strain B. It is filed as cell-based. As to the method: as §1, with “|B” for “|A”, “9343” for “10581”
In experiment [14] the test system is B. fragilis NCTC 9344. Briefly: MIC/MBC against Bacteroides fragilis strain C. It is filed as cell-based. The protocol: as §1, with “|C” for “|A”, “9344” for “10581”
For experiment [15], the system named is B. fragilis MZ-R ATCC 11295. Briefly: MIC/MBC against Bacteroides fragilis strain D. Format: cell-based. As to the method:
The screening panel utilized in this Example consisted of 5 strains of Bacteroides fragilis. All assays were carried out in 96-well microtitre plates. If an isolate was obtained from either a culture collection or clinical source, the isolate was immediately inoculated into Wilkens-Chalgren broth (Oxoid) and incubated at 37° C. in an anaerobic chamber in an atmosphere of 85% nitrogen, 10% carbon dioxide, and 5% hydrogen for 48 hours. At the end of this time, the viable count was about 10^12 organisms/ml broth. A 1 ml aliquot of each culture was placed in an ampoule and quick frozen in acetone-dry ice mixture and stored in liquid nitrogen. When an inoculum was utilized in an assay, one of the ampoules was thawed and diluted with fresh broth to yield a suspension having a count of 5×10^5 organisms/ml. A 100 μl aliquot of this suspension was inoculated into each well of the microtitre plate. A 2 mg sample of the test compound was dissolved in 0.2 ml of a suitable solvent such as dimethylsulfoxide, polyethylene glycol 200 or methanol. […] After addition of the test solution the final inoculum level was 10^5 cells/ml. The plates were incubated for 48 hours at 37° C. in the anaerobic chamber. The Minimum Inhibitory Concentration (MIC) was read visually. The MIC is defined as the lowest concentration at which there is no detectable growth. The Minimum Bactericidal Concentration (MBC) was determined by taking 50 μl aliquot from each well and placing it in fresh medium.

For experiment [16], the system named is B. fragilis WS-1. Briefly: MIC/MBC against Bacteroides fragilis strain E. Format: cell-based. As to the method:
as §1, with “|E” for “|A”, “WS-1*” for “NCTC 10581”

For the compound `CC1(C)CN=C2C(c3ccccc3)=[N+]([O-])c3cccnc3N2C1` [Example 39, 2,3-dihydro-2,2-dimethyl-5-phenyl-1H-pyrimido[1,2-a]pyrido[3,2-e]pyrazine 6-oxide bishydrochloride], the MIC worked out at 1.5 µg/mL in experiment [1]; 6.2 µg/mL in experiment [2]; 1.5 µg/mL in [3] (C. difficile NCIB 10666, bishydrochloride); 50 µg/mL in experiment [4]; 25 µg/mL in experiment [5]; 1.5 µg/mL in experiment [6]. The MIC in experiment [7] and in experiment [8] was 100 µg/mL each time. In addition, the “DOSE GIVING 1 LOG REDUCTION” value in experiment [9] amounted to 0.7 mg/kg. The “DOSE GIVING 1 LOG REDUCTION (molar)” value in experiment [9] is 1.8 μM/Kg.

For `Cc1ncc([N+](=O)[O-])n1CCO` [Metronidazole, metronidazole, reference compound], in experiment [10] (99.9% reduction in viable count), the “MBC, strain A” value was found to be 1.5 µg/mL (≈ 8.76 µM). For the same compound, the “MIC, strain A” value in [10] (48 hours, 37° C., anaerobic) came to 1.5 µg/mL (≈ 8.76 µM). In addition, in experiment [10], the minimal bactericidal concentration (MBC) was < 0.8 µg/mL. For the same compound, the MIC in [10] (48 hours, 37° C., anaerobic) was < 0.8 µg/mL; in experiment [3] (Clostridioides difficile, NCIB10666, C. difficile NCIB 10666, read-out: MIC), < 0.8 µg/mL; in experiment [5], 3.1 µg/mL (≈ 18.1 µM); in experiment [11], < 0.8 µg/mL; in experiment [12] it was 100 µg/mL (≈ 584 µM).

For `CCC1(C)CN=C2C(c3ccc(C)cc3)=[N+]([O-])c3cccnc3N2C1` (stereo not shown) [Example 35, 2,3-Dihydro-2-ethyl-2-methyl-5-(4-methylphenyl)-1H-pyrimido[1,2-a]pyrido[3,2-e]pyrazine 6-oxide], the MBC in experiment [10] is < 0.8 µg/mL; in experiment [13] (NCTC9343, 99.9% reduction in viable count), < 0.8 µg/mL; in experiment [14] (NCTC9344, 99.9% reduction in viable count), < 0.8 µg/mL; in experiment [15] (ATCC11295, 99.9% reduction in viable count), < 0.8 µg/mL; in experiment [16] (WS1, 99.9% reduction in viable count), < 0.8 µg/mL. The MIC was < 0.8 µg/mL in [10] (48 hours, 37° C., anaerobic); < 0.8 µg/mL in experiment [13] (NCTC9343, 48 h, 48 hours, 37° C., anaerobic); < 0.8 µg/mL in experiment [14] (NCTC9344, 48 h, 48 hours, 37° C., anaerobic); < 0.8 µg/mL in [15] (ATCC11295, 48 h, 48 hours, 37° C., anaerobic); < 0.8 µg/mL in [16] (WS1, 48 h, 48 hours, 37° C., anaerobic).

As a reminder, the MBC is the smallest concentration meeting the test's criterion for killing.
